According to publication PMC5867211 (Archives of toxicology, 2017):
“Also recorded” adds a separate entry of the source.

System: Hep3B human hepatoma cell line
Experiment: 2D cell viability
Type: cell-based
Details: Homo sapiens, Hep3B, 72 h, read-out: IC50, 2D cultured Hep3B cells in 96-well plates
`CC(CCc1ccccc1)NCC(O)c1ccc(O)c(C(N)=O)c1` (stereo not shown) [Labetalol] gave an IC50 of 150 ± 34 µM. `Cc1cccc(Nc2ccccc2C(=O)O)c1C` [Mefenamic acid] gave an IC50 of 260 ± 74 µM. `CC(Cc1ccc(O)cc1)NCC(O)c1cc(O)cc(O)c1` (stereo not shown) [Fenoterol] gave an IC50 of 300 µM. Molecule `C[C@@](Cc1ccc(O)c(O)c1)(NN)C(=O)O` [Carbidopa] has an IC50 of 46 ± 28 µM. `CC1=C(CC(=O)O)c2cc(F)ccc2/C1=C\c1ccc([S+](C)[O-])cc1` (stereo not shown) [Sulindac] showed an IC50 of 300 µM. In the case of `C[C@]12CC[C@@H]3c4ccc(O)cc4CC[C@H]3[C@@H]1CC[C@@H]2O` [Estradiol], the IC50 is reported as 53 ± 20 µM. Molecule `Nc1ccc(/N=N/c2ccccc2)c(N)n1` [Phenazopyridine] has an IC50 of 55 ± 13 µM. `CN(C)CCCN1c2ccccc2Sc2ccccc21` [Promazine] gave an IC50 of 21 ± 3 µM. For `COc1ccccc1Oc1c(NS(=O)(=O)c2ccc(C(C)(C)C)cc2)nc(-c2ncccn2)nc1OCCO` [Bosentan], the IC50 was 55 ± 20 µM. Molecule `CN(C)CCCN1c2ccccc2CCc2ccccc21` [Imipramine] has an IC50 of 5 ± 2 µM. Molecule `O=C1CC2(CCCC2)CC(=O)N1CCCCN1CCN(c2ncccn2)CC1` [Buspirone] has an IC50 of 170 ± 74 µM. `CC(C)C(=O)Nc1ccc([N+](=O)[O-])c(C(F)(F)F)c1` [Flutamide] showed an IC50 of 45 ± 18 µM. With `Cc1ccc(N(CC2=NCCN2)c2cccc(O)c2)cc1` [Phentolamine] the IC50 was 48 ± 9 µM. `CC(=O)Nc1ccc(O)cc1` [Acetaminophen] gave an IC50 of 300 µM. For `CCc1oc2ccccc2c1C(=O)c1cc(Br)c(O)c(Br)c1` [Benzbromarone], the IC50 was 58 ± 22 µM. `O=C(O)Cc1ccccc1Nc1c(Cl)cccc1Cl` [Diclofenac] showed an IC50 of 120 ± 51 µM. Work on `CCCNC(=O)NS(=O)(=O)c1ccc(Cl)cc1` [Chlorpropamide] yielded an IC50 of 300 µM.

Same assay, conditions: read-out: IC50, 2D cultured Hep3B cells in 96-well plates; 2D monolayer, no enzyme, 72 h, MTT
For `CCCOc1ccc2[nH]c(NC(=O)OC)nc2c1` [Oxybendazole], the IC50 was 24 ± 18 µM.

System: Hep3B cells
Experiment: Metabolism-induced toxicity on DataChip/MetaChip
Details: All Mix vs. no enzyme, 3D Hep3B on chip
With `Cc1cccc(Nc2ccccc2C(=O)O)c1C` [Mefenamic acid] the “Change of toxicity in All Mix vs. parent compound” value was “statistically less toxicity”. For `C[C@@](Cc1ccc(O)c(O)c1)(NN)C(=O)O` [Carbidopa], the “Change of toxicity in All Mix vs. parent compound” value was “augmented toxicity”. In the case of `CC1=C(CC(=O)O)c2cc(F)ccc2/C1=C\c1ccc([S+](C)[O-])cc1` (stereo not shown) [Sulindac], the “Change of toxicity in All Mix vs. parent compound” value is reported as “statistically less toxicity; also recorded: increased IC50”. With `CCCOc1ccc2[nH]c(NC(=O)OC)nc2c1` [Oxybendazole] the “Change of toxicity in All Mix vs. parent compound” value was “augmented toxicity”. For `CC(C)C(=O)Nc1ccc([N+](=O)[O-])c(C(F)(F)F)c1` [Flutamide], the “Change of toxicity in All Mix vs. parent compound” value was “statistically less toxicity”. In the case of `CC(=O)Nc1ccc(O)cc1` [Acetaminophen], the “Change of toxicity in All Mix vs. parent compound” value is reported as “metabolism-induced toxicity”.

Same assay, conditions: Homo sapiens, Hep3B, read-out: IC50, 3D cultured Hep3B cells on the Data/MetaChip, All Mix
`CC(Cc1ccc(O)cc1)NCC(O)c1cc(O)cc(O)c1` (stereo not shown) [Fenoterol] gave a CC50 of 1.2 mM.

Same assay, conditions: Homo sapiens, Hep3B, read-out: IC50, 3D cultured Hep3B cells on the Data/MetaChip, HLM
For `CC(Cc1ccc(O)cc1)NCC(O)c1cc(O)cc(O)c1` (stereo not shown) [Fenoterol], the CC50 was 1.2 mM.

Same assay, conditions: Homo sapiens, Hep3B, read-out: IC50, 3D cultured Hep3B cells on the Data/MetaChip, No Enzyme
Molecule `CC(Cc1ccc(O)cc1)NCC(O)c1cc(O)cc(O)c1` (stereo not shown) [Fenoterol] has a CC50 of 1.2 mM.

System: Hep3B cells
Experiment: not given
Details: not given
For `C[C@@](Cc1ccc(O)c(O)c1)(NN)C(=O)O` [Carbidopa], the “Change of toxicity in P450 Mix vs. parent compound” value was “activated”. In the case of `CC(=O)Nc1ccc(O)cc1` [Acetaminophen], the “Change of toxicity in P450 Mix vs. parent compound” value is reported as “metabolism-induced toxicity”.

System: not given
Experiment: not given
Details: read-out: 1000* Human Cmax; 1000-fold in vivo human Cmax; cited from earlier work
In the case of `CC(Cc1ccc(O)cc1)NCC(O)c1cc(O)cc(O)c1` (stereo not shown) [Fenoterol], the Cmax is listed as 0.6 nM. In the case of `C[C@@](Cc1ccc(O)c(O)c1)(NN)C(=O)O` [Carbidopa], the Cmax is listed as 660 nM. In the case of `C[C@]12CC[C@@H]3c4ccc(O)cc4CC[C@H]3[C@@H]1CC[C@@H]2O` [Estradiol], the Cmax is listed as 0.1 nM. For `Nc1ccc(/N=N/c2ccccc2)c(N)n1` [Phenazopyridine], the Cmax is given as 124 nM. For `CN(C)CCCN1c2ccccc2Sc2ccccc21` [Promazine], the Cmax is given as 490 nM. For `CCCOc1ccc2[nH]c(NC(=O)OC)nc2c1` [Oxybendazole], the Cmax is listed as 30 nM. In the case of `CNCCC(Oc1ccc(C(F)(F)F)cc1)c1ccccc1` (stereo not shown) [Fluoxetine], the Cmax is given as 97 nM. In the case of `CCCNC(=O)NS(=O)(=O)c1ccc(Cl)cc1` [Chlorpropamide], the Cmax is given as 123000 nM.

System: humans
Experiment: not given
Details: previously categorized; ref Xu et al. 2008; cited from earlier work
For `CC(CCc1ccccc1)NCC(O)c1ccc(O)c(C(N)=O)c1` (stereo not shown) [Labetalol], the DILI category is listed as “P2”. In the case of `Cc1cccc(Nc2ccccc2C(=O)O)c1C` [Mefenamic acid], the DILI category is listed as “P2”. In the case of `CC(Cc1ccc(O)cc1)NCC(O)c1cc(O)cc(O)c1` (stereo not shown) [Fenoterol], the DILI category is given as “P2”. In the case of `C[C@@](Cc1ccc(O)c(O)c1)(NN)C(=O)O` [Carbidopa], the DILI category is given as “N1”. For `Cc1nc2n(c(=O)c1CCN1CCC(c3noc4cc(F)ccc34)CC1)CCCC2` [Risperidone], the DILI category is listed as “P2”. For `CC1=C(CC(=O)O)c2cc(F)ccc2/C1=C\c1ccc([S+](C)[O-])cc1` (stereo not shown) [Sulindac], the DILI category is listed as “P2”. For `C[C@]12CC[C@@H]3c4ccc(O)cc4CC[C@H]3[C@@H]1CC[C@@H]2O` [Estradiol], the DILI category is listed as “N3”. In the case of `Nc1ccc(/N=N/c2ccccc2)c(N)n1` [Phenazopyridine], the DILI category is given as “P2”. For `CN(C)CCCN1c2ccccc2Sc2ccccc21` [Promazine], the DILI category is listed as “N3”. In the case of `COc1ccccc1Oc1c(NS(=O)(=O)c2ccc(C(C)(C)C)cc2)nc(-c2ncccn2)nc1OCCO` [Bosentan], the DILI category is listed as “P1”. For `CCCOc1ccc2[nH]c(NC(=O)OC)nc2c1` [Oxybendazole], the DILI category is given as “O1”. For `CN(C)CCCN1c2ccccc2CCc2ccccc21` [Imipramine], the DILI category is given as “P2”. In the case of `O=C1CC2(CCCC2)CC(=O)N1CCCCN1CCN(c2ncccn2)CC1` [Buspirone], the DILI category is given as “N1”. In the case of `CC(C)C(=O)Nc1ccc([N+](=O)[O-])c(C(F)(F)F)c1` [Flutamide], the DILI category is listed as “P2”. For `CC(=O)Nc1ccc(O)cc1` [Acetaminophen], the DILI category is listed as “P1”. For `CNCCC(Oc1ccc(C(F)(F)F)cc1)c1ccccc1` (stereo not shown) [Fluoxetine], the DILI category is listed as “N3”. In the case of `CCc1oc2ccccc2c1C(=O)c1cc(Br)c(O)c(Br)c1` [Benzbromarone], the DILI category is listed as “P1”. For `O=C(O)Cc1ccccc1Nc1c(Cl)cccc1Cl` [Diclofenac], the DILI category is given as “P2”. For `CCCNC(=O)NS(=O)(=O)c1ccc(Cl)cc1` [Chlorpropamide], the DILI category is given as “P2”. For `O=c1n(CCCN2CCN(c3cccc(Cl)c3)CC2)nc2ccccn12` [Trazodone], the DILI category is listed as “P2”.

System: not listed separately
Experiment: in vitro
Details: human
Work on `CC(Cc1ccc(O)cc1)NCC(O)c1cc(O)cc(O)c1` (stereo not shown) [Fenoterol] yielded an IC50 of 290 ± 140 µM.
